According to patent US6256527A, “Method for determining oxygen concentration” (Nycomed Imaging AS, priority 1995, dated 2001):

Key:
Type in all cases: physicochemical
[1] = DNP (Overhauser) enhancement and DNP-curve relaxivity at infinite concentration and power; settings: water
Text: The calibration data are generated by determining Overhauser enhancement values for the radical in the selected body fluid, at the selected temperature and at a range of oxygen (and preferably also radical) concentrations. The intrinsic esr relaxation times for the radical can be determined, under the same conditions, using a conventional esr spectrometer equipped with a temperature controller, with oxygen concentration being determined using the method of Ravin et al J. Appl. Physiol. 18:784-790(1964), a method known to produce accurate and reproducible results.
(§1) The following four water soluble, single ESR line trityls were investigated by NMRD, Dynamic Nuclear Polarisation (DNP) and ESR (Examples 1-4).
(§2) The relaxivity and DNP enhancement data were measured in water, plasma and blood at 23° C. and 37° C. The results are set out in Tables 1 and 2.

[2] = Electron spin relaxation rates (radical concentration dependent) from CW ESR spectra and DNP data; settings: water (isotonic saline)
Procedure: as §1
Electron spin relaxation rates were measured by analysis of CW ESR spectra and DNP data at 23° C. and 37° C. in water, isotonic saline, plasma and blood for the deuterated hydroxy trityl and in water and isotonic saline for the perdeuterated and symmetric trityl.

[3] = Relaxivity from NMRD profiles in water, plasma and blood; settings: water
Procedure: as §1, §2

[4] = Oximetric calibration by X-band ESR (9 GHz), oxygen broadening; settings: plasma, 37° C., X-band 9 GHz
Procedure: Oximetric calibrations were made for the perdeuterated trityl and the non-deuterated hydroxy trityl in water and plasma at 37° C. with ESR in the X-band at 9 GHz. The experiment was performed on a Varian X-band spectrometer with temperature controller. A thermocouple was placed near the microwave cavity for accurate determination of the temperature. The samples were placed in thin wall teflon capillaries for rapid equilibration with a flowing gas mixture. A Sensormedics Oxygen Analyzer OM-11 was used to determine the oxygen percentage in the flowing gas. The gas pressure for temperature control and oxygenation was maintained at 20 psi. The linewidth and the saturation of the electron spin resonance was measured. Fremys salt was chosen as a B1 calibration standard and a conversion factor of 38.6±0.2 mG/mW was obtained.
The results are shown in FIGS. 2 and 3 which give the linewidth as a function of oxygen concentration. The oxygen broadening of the perdeuterated trityl in plasma at 37° C. is 583 mG/mMo2 .

A. (enhancement at infinite concentration and power) [1]: 267
2(3γe T1e)^-1, concentration dependent relaxation rate (peak-to-peak) ([2]; 23° C.): 10.6 ± 0.8 mg/mM
2(3γe T2e)^-1, concentration dependent relaxation rate (peak-to-peak) ([2]; 23° C.): 24.3 ± 0.8 mg/mM
2(3γe T1e)^-1, concentration dependent relaxation rate (peak-to-peak) ([2]; 37° C.): 12.9 ± 0.3 mg/mM
2(3γe T2e)^-1, concentration dependent relaxation rate (peak-to-peak) ([2]; 37° C.): 28.2 ± 1.2 mg/mM
Relaxivity ([3]; 23° C.): 0.19 mM⁻¹ s⁻¹
Relaxivity ([3]; 37° C.): 0.14 mM⁻¹ s⁻¹
oxygen broadening [4]: 583 mG/mMo2
Substance: Bis-(8-sodium carboxylate-2,2,6,6-tetrakis-(^2 H3 methyl)-benzo[1,2-d:4,5-d']-bis(1,3)-dithiole-4-yl)-mono-(8-sodium carboxylate-2,2,6,6-tetrakis-(^2 H3 -methyl)-benzo[1,2-d:4,5-d']-bis(1,3)-dioxole-4-yl) methyl [perdeuterated trityl]
